Patent US20250145598A1, “ACID CERAMIDASE INHIBITORS AND USES THEREOF” (The Regents of the University of California, priority 2021, published 2025)

Biological target: T1, Acid ceramidase (Homo sapiens, UniProt Q13510)
T1 sequence (Q13510 22-395): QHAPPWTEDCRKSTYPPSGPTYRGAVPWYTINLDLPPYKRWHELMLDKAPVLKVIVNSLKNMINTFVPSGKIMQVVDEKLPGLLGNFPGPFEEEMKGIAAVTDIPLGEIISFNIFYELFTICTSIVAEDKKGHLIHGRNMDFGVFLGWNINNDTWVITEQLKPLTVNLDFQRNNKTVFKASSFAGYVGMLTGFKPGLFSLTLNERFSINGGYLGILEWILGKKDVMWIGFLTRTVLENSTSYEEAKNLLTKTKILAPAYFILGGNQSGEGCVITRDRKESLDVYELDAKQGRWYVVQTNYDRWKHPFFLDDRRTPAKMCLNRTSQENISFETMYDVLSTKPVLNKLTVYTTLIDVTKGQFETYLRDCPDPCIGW
Assay: Acid ceramidase assay (AC in vitro IC50)
Format: biochemical
Settings: Acid ceramidase assay data of example compounds

Row | SMILES | IC50 [nM]
1 | CS(=O)(=O)c1ccc(COc2ccc(-c3cn(C(=O)NCC4CCN(c5cc(F)ccc5F)C4)cn3)cc2)cc1 (centres unmarked) [AC2020601-0496, N-((1-(2,5-difluorophenyl)pyrrolidin-3-yl)methyl)-4-(4-(4-(methylsulfonyl)benzyloxy)phenyl)-1H-imidazole-1-carboxamide] | < 300
2 | O=C(NCC1CN(c2ccccc2)C1)n1cnc(-c2ccc(OCc3cccc(N4CCOCC4)c3)cc2)c1 [AC2020601-0382, 4-(4-(3-morpholinobenzyloxy)phenyl)-N-((1-phenylazetidin-3-yl)methyl)-1H-imidazole-1-carboxamide] | < 300
3 | O=C(NCCCCc1ccccc1)n1cnc(-c2ccc(OCc3cccnc3)cc2)c1 [AC2020601-0276, N-(4-phenylbutyl)-4-(4-(pyridin-3-ylmethoxy)phenyl)-1H-imidazole-1-carboxamide] | < 300
4 | CS(=O)(=O)c1ccc(COc2ccc(-c3cn(C(=O)NCC4CN(c5cccc(Cl)c5)C4)cn3)cc2)cc1 [AC2020601-0407, N-((1-(3-chlorophenyl)azetidin-3-yl)methyl)-4-(4-((4-(methylsulfonyl)benzyl)oxy)phenyl)-1H-imidazole-1-carboxamide] | < 300
5 | CS(=O)(=O)Nc1ccc(COc2ccc(-c3cn(C(=O)NCCCOc4ccccc4)cn3)cc2)cc1 [AC2020601-0327, 4-(4-((4-(methylsulfonamido)benzyl)oxy)phenyl)-N-(3-phenoxypropyl)-1H-imidazole-1-carboxamide] | < 300
6 | CS(=N)(=O)c1ccc(COc2ccc(-c3cn(C(=O)NCC4CCN(c5ccccc5)C4)cn3)cc2)cc1 (centres unmarked) [AC2020601-0452, 4-(4-((4-(S-methylsulfonimidoyl)benzyl)oxy)phenyl)-N-((1-phenylpyrrolidin-3-yl)methyl)-1H-imidazole-1-carboxamide] | < 300
7 | CNS(=O)(=O)c1ccc(COc2ccc(-c3cn(C(=O)NCCCOc4ccccc4)cn3)cc2)cc1 [AC2020601-0339, 4-(4-((4-(N-methylsulfamoyl)benzyl)oxy)phenyl)-N-(3-phenoxypropyl)-1H-imidazole-1-carboxamide] | < 300
8 | O=C(NCCCCc1ccccc1)n1cnc(-c2ccc(OCc3ccncc3)cc2)c1 [AC2020601-0323, N-(4-phenylbutyl)-4-(4-(pyridin-4-ylmethoxy)phenyl)-1H-imidazole-1-carboxamide] | < 300
9 | CC(C)n1cncc1COc1ccc(-c2cn(C(=O)NCC3CCN(c4ccccc4)C3)cn2)cc1 (centres unmarked) [AC2020601-0478, 4-(4-((1-isopropyl-1H-imidazol-5-yl)methoxy)phenyl)-N-((1-phenylpyrrolidin-3-yl)methyl)-1H-imidazole-1-carboxamide] | < 300
10 | CS(=O)(=O)c1ccc(CNC(=O)n2cnc(-c3ccc(OCc4ccc(S(C)(=O)=O)cc4)cc3)c2)cc1 [AC2020601-0303, N-(4-(methylsulfonyl)benzyl)-4-(4-((4-(methylsulfonyl)benzyl)oxy)phenyl)-1H-imidazole-1-carboxamide] | 301 to 3000
11 | O=C(NCC1CCN(c2ccccc2)C1)n1cnc(-c2ccc(OC3CCc4cc(F)ccc43)cc2)c1 (centres unmarked) [AC2020601-0439, 4-(4-((5-fluoro-2,3-dihydro-1H-inden-1-yl)oxy)phenyl)-N-((1-phenylpyrrolidin-3-yl)methyl)-1H-imidazole-1-carboxamide] | < 300
12 | CS(=O)(=O)c1ccc(COc2ccc(-c3cn(C(=O)NCCCOc4ccccc4)cn3)cc2)cc1 [AC2020601-0294, 4-(4-((4-(methylsulfonyl)benzyl)oxy)phenyl)-N-(3-phenoxypropyl)-1H-imidazole-1-carboxamide] | < 300
13 | O=C(NCCCCc1ccccc1)n1cnc(-c2ccc(OCc3cccc(N4CCOCC4)c3)cc2)c1 [AC2020601-0245, 4-(4-((3-morpholinobenzyl)oxy)phenyl)-N-(4-phenylbutyl)-1H-imidazole-1-carboxamide] | < 300
14 | CC(C)N1CC(CNC(=O)n2cnc(-c3ccc(OCc4ccc(S(C)(=O)=O)cc4)cc3)c2)C1 [AC2020601-0379, N -((1-isopropylazetidin-3-yl)methyl)-4-(4-((4-(methylsulfonyl)benzyl)oxy)phenyl)-1H-imidazole-1-carboxamide] | > 3000
15 | Cc1ncc(N2CCC(CNC(=O)n3cnc(-c4ccc(OCc5ccc(S(C)(=O)=O)cc5)cc4)c3)C2)s1 (centres unmarked) [AC2020601-0499, 4-(4-((4-(methylsulfonyl)benzyl)oxy)phenyl)-N-((1-(2-methylthiazol-5-yl)pyrrolidin-3-yl)methyl)-1H-imidazole-1-carboxamide] | < 300
16 | NC(=O)c1cccnc1COc1ccc(-c2cn(C(=O)NCC3CCN(c4ccccc4)C3)cn2)cc1 (centres unmarked) [AC2020601-0438, 2-((4-(1-(((1-phenylpyrrolidin-3-yl)methyl)carbamoyl)-1H-imidazol-4-yl)phenoxy)methyl)nicotinamide] | < 300

Row | SMILES | IC50 [nM]
17 | CS(=O)(=O)c1ccc(COc2ccc(-c3cn(C(=O)NCC4CCN(c5cccc(C#N)c5)C4)cn3)cc2)cc1 (centres unmarked) [AC2020601-0494, N-((1-(3-cyanophenyl)pyrrolidin-3-yl)methyl)-4-(4-(4-(methylsulfonyl)benzyloxy)phenyl)-1H-imidazole-1-carboxamide] | < 300
18 | O=C(NCCCOc1ccccc1)n1cnc(-c2ccc(OCc3ccc(NS(=O)(=O)C(F)F)cc3)cc2)c1 [AC2020601-0363, 4-(4-((4-(difluoromethylsulfonamido)benzyl)oxy)phenyl)-N-(3-phenoxypropyl)-1H-imidazole-1-carboxamide] | < 300
19 | CS(=O)(=O)Nc1ccc(COc2ccc(-c3cn(C(=O)NCCCCc4ccccc4)cn3)cc2)cc1 [AC2020601-0306, 4-(4-((4-(methylsulfonamido)benzyl)oxy)phenyl)-N-(4-phenylbutyl)-1H-imidazole-1-carboxamide] | < 300
20 | CCS(=O)(=O)c1ccc(COc2ccc(-c3cn(C(=O)NCC4CCN(c5ccccc5)C4)cn3)cc2)c(C#N)c1 (centres unmarked) [AC2020601-0430, 4-(4-((2-cyano-4-(ethylsulfonyl)benzyl)oxy)phenyl)-N-((1-phenylpyrrolidin-3-yl)methyl)-1H-imidazole-1-carboxamide] | < 300
21 | O=C(NCC1CCN(c2ccccc2)C1)n1cnc(-c2ccc(OCc3cccnn3)cc2)c1 (centres unmarked) [AC2020601-0472, N-((1-phenylpyrrolidin-3-yl)methyl)-4-(4-(pyridazin-3-ylmethoxy)phenyl)-1H-imidazole-1-carboxamide] | < 300
22 | CN1CCN(c2cccc(COc3ccc(-c4cn(C(=O)NCC5CCN(c6ccccc6)C5)cn4)cc3)c2)CC1=O (centres unmarked) [AC2020601-0434, 4-(4-(3-(4-methyl-3-oxopiperazin-1-yl)benzyloxy)phenyl)-N-((1-phenylpyrrolidin-3-yl)methyl)-1H-imidazole-1-carboxamide] | < 300
23 | CS(=O)(=O)c1ccc(COc2ccc(-c3cn(C(=O)NCC4CN(c5ccccc5)C4)cn3)cc2)cc1 [AC2020601-0321, 4-(4-((4-(methylsulfonyl)benzyl)oxy)phenyl)-N-((1-phenylazetidin-3-yl)methyl)-1H-imidazole-1-carboxamide] | < 300
24 | NC(=O)c1cccc(COc2ccc(-c3cn(C(=O)NCCCCc4ccccc4)cn3)cc2)c1 [AC2020601-0246, 4-(4-((3-carbamoylbenzyl)oxy)phenyl)-N-(4-phenylbutyl)-1H-imidazole-1-carboxamide] | < 300
25 | CS(=O)(=O)c1ncc(COc2ccc(-c3cn(C(=O)NCC4CCN(c5ccccc5)C4)cn3)cc2)cn1 (centres unmarked) [AC2020601-0477, 4-(4-((2-(methylsulfonyl)pyrimidin-5-yl)methoxy)phenyl)-N-((1-phenylpyrrolidin-3-yl)methyl)-1H-imidazole-1-carboxamide] | < 300
26 | CS(=O)(=O)c1ccc(COc2ccc(-c3cn(C(=O)NC[C@H]4CCN(c5ccccc5)C4)cn3)cc2)cc1 (single isomer, unassigned) [AC2020601-0384b] | < 300
27 | CS(=O)(=O)c1ccc(COc2ccc(-c3cn(C(=O)NCC4CC4)cn3)cc2)cc1 [AC2020601-0295, N-(cyclopropylmethyl)-4-(4-((4-(methylsulfonyl)benzyl)oxy)phenyl)-1H-imidazole-1-carboxamide] | < 300
28 | O=C(Nc1ccc(COc2ccc(-c3cn(C(=O)NCCCOc4ccccc4)cn3)cc2)cc1)C1CC1 [AC2020601-0328, 4-(4-((4-(cyclopropanecarboxamido)benzyl)oxy)phenyl)-N-(3-phenoxypropyl)-1H-imidazole-1-carboxamide] | < 300
29 | O=C(Nc1ccc(COc2ccc(-c3cn(C(=O)NCC4CN(c5ccccc5)C4)cn3)cc2)cc1)C1COC1 [AC2020601-0401, 4-(4-((4-(oxetane-3-carboxamido)benzyl)oxy)phenyl)-N-((1-phenylazetidin-3-yl)methyl)-1H-imidazole-1-carboxamide] | < 300
30 | CS(=O)(=O)c1ccc(COc2ccc(-c3cn(C(=O)NCCCOc4ccc(C#N)cc4)cn3)cc2)cc1 [AC2020601-0373, N-(3-(4-cyanophenoxy)propyl)-4-(4-(4-(methylsulfonyl)benzyloxy)phenyl)-1H-imidazole-1-carboxamide] | < 300
31 | CS(=O)(=O)c1ccc(COc2ccc(-c3cn(C(=O)NCCN4Cc5ccccc5C4)cn3)cc2)cc1 [AC2020601-0402, N-(2-(isoindolin-2-yl)ethyl)-4-(4-(4-(methylsulfonyl)benzyloxy)phenyl)-1H-imidazole-1-carboxamide] | > 3000
32 | CCS(=O)(=O)c1ccc(COc2ccc(-c3cn(C(=O)NCC4CCN(c5ccccc5)C4)cn3)cc2)c(C(N)=O)c1 (centres unmarked) [AC2020601-0431, 4-(4-(2-carbamoyl-4-(ethylsulfonyl)benzyloxy)phenyl)-N-((1-phenylpyrrolidin-3-yl)methyl)-1H-imidazole-1-carboxamide] | < 300
